According to patent EP4745137A1 (Gluetacs Therapeutics (Shanghai) Co., Ltd., priority 2023, dated 2025):
Where two headings read alike, the source gives them in different places.

Key:
WEE1 = molecular target: T1, WEE1 (Homo sapiens, UniProt P30291+Q96SW2); assay: Western-blot assay of substrate protein degradation in hPBMCs, WEE1; assay type: cell-based; settings: 24 hours of compound treatment, compounds tested at 50 nM and 500 nM (concentration of the table not stated)
T1 construct: endogenous in cells; host or cells: hPBMCs (Milecell Biotechnologies)
T1 sequence (P30291 whole entry): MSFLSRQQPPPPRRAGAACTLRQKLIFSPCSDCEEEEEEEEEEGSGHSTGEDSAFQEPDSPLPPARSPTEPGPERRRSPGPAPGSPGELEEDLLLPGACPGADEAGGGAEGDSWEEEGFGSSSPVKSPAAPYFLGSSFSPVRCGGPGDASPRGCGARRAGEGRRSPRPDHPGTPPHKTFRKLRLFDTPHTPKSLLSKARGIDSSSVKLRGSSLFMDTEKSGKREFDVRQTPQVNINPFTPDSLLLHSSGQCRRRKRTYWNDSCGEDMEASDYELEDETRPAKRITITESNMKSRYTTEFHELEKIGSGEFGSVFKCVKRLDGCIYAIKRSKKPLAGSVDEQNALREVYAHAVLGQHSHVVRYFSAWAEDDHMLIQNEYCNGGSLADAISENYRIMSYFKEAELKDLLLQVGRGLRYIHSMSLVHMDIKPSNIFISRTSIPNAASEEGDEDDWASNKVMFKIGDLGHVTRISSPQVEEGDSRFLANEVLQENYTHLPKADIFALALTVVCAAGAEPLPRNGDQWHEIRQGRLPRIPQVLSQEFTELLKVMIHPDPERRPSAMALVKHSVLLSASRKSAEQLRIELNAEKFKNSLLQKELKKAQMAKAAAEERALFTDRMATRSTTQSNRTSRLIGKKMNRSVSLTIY
T1 sequence (Q96SW2 whole entry): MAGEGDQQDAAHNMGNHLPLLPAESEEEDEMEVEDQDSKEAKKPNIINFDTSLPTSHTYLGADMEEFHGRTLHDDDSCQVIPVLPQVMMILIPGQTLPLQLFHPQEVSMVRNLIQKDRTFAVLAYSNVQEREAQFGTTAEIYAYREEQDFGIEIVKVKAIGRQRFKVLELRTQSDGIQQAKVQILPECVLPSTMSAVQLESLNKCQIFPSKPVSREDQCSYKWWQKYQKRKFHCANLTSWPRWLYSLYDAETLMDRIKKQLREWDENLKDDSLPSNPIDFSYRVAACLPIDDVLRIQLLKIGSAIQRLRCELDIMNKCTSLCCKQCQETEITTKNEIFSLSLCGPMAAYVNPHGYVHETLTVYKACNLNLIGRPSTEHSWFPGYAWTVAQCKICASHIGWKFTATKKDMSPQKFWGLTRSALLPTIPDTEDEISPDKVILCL
T1 sequence (Q16531 whole entry partner): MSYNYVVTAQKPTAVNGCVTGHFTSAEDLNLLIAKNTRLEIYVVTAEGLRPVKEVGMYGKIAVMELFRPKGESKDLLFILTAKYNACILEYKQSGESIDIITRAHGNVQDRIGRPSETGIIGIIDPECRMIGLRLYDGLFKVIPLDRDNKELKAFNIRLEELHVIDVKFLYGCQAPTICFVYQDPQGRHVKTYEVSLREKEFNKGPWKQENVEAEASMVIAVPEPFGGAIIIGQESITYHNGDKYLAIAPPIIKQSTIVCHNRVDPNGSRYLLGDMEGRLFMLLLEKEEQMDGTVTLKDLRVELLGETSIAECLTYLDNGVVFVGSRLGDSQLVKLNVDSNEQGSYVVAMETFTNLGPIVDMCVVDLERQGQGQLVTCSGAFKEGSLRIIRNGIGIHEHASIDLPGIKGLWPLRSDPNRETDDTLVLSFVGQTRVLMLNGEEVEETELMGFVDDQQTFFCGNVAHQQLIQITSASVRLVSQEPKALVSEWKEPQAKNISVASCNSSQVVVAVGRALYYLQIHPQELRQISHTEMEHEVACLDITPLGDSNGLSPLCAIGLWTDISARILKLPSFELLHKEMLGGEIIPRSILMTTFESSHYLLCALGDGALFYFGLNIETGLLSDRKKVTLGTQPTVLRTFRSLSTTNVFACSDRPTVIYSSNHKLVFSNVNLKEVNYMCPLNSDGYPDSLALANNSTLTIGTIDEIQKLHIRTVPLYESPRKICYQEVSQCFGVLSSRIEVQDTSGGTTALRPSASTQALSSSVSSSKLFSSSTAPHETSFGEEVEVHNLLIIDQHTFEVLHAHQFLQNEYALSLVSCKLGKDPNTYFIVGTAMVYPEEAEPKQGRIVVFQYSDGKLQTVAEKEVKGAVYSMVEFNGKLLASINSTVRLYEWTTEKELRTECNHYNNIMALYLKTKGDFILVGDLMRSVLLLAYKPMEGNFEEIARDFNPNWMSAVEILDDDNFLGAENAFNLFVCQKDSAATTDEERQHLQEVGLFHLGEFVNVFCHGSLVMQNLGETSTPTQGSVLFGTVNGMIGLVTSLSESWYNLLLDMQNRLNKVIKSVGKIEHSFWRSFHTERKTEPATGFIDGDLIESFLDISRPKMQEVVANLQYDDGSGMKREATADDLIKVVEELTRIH

[1] = molecular target: T2, human Cereblon WT GST-tagged protein (Homo sapiens, UniProt Q96SW2); assay: CRBN-binding affinity by HTRF (CEREBLON BINDING kit)
T2 construct: purchased CISBIO 64BDCRBNPEH
T2 sequence (Q96SW2 whole entry): as the sequence (Q96SW2 whole entry) above

IKZF3 = molecular target: T3, IKZF3 (Homo sapiens, UniProt Q96SW2+Q9UKT9); assay: Western-blot assay of substrate protein degradation in hPBMCs, IKZF3; assay type: cell-based; settings: 24 hours of compound treatment, compounds tested at 50 nM and 500 nM (concentration of the table not stated)
T3 construct: endogenous in cells; host or cells: hPBMCs (Milecell Biotechnologies)
T3 sequence (Q9UKT9 whole entry): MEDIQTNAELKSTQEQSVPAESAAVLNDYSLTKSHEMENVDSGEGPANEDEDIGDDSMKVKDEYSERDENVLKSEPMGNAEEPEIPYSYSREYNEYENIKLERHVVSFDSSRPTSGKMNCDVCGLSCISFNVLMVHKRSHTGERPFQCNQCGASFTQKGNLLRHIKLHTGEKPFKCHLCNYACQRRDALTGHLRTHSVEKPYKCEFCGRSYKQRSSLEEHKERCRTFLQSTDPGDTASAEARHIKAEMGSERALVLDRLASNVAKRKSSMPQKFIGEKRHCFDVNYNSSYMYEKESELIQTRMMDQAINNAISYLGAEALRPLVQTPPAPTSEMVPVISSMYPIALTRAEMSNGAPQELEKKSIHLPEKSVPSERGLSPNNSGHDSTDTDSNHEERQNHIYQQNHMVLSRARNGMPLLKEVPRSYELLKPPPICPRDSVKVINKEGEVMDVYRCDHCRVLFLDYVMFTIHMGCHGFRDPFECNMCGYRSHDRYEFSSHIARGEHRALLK
T3 sequence (Q96SW2 whole entry): as the sequence (Q96SW2 whole entry) above
T3 sequence (Q16531 whole entry partner): as the sequence (Q16531 whole entry partner) above

CK1α = molecular target: T4, CK1α (Homo sapiens, UniProt P48729+Q96SW2); assay: Western-blot assay of substrate protein degradation in hPBMCs, CK1α; assay type: cell-based; settings: 24 hours of compound treatment, compounds tested at 50 nM and 500 nM (concentration of the table not stated)
T4 construct: endogenous in cells; host or cells: hPBMCs (Milecell Biotechnologies)

GSPT1 = molecular target: T5, GSPT1 (Homo sapiens, UniProt P15170+Q96SW2); assay: Western-blot assay of substrate protein degradation in hPBMCs, GSPT1; assay type: cell-based; settings: 24 hours of compound treatment, compounds tested at 50 nM and 500 nM (concentration of the table not stated)
T5 construct: endogenous in cells; host or cells: hPBMCs (Milecell Biotechnologies)
T5 sequence (P15170 whole entry): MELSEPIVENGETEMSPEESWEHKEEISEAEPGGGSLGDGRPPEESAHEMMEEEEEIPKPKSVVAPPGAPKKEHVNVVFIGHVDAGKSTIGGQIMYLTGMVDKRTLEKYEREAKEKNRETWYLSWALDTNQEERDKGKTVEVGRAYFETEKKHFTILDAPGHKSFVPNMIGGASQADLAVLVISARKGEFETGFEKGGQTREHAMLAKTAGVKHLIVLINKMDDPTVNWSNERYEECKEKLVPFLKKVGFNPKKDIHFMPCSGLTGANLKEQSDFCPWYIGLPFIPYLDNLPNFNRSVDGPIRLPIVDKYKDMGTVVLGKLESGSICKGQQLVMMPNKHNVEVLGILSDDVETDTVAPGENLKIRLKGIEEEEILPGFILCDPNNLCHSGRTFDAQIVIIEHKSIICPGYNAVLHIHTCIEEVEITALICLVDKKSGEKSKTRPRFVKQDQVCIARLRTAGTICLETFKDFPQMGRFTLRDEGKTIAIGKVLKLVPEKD
T5 sequence (Q96SW2 whole entry): as the sequence (Q96SW2 whole entry) above
T5 sequence (Q16531 whole entry partner): as the sequence (Q16531 whole entry partner) above

IKZF2 = molecular target: T6, IKZF2 (Homo sapiens, UniProt Q96SW2+Q9UKS7); assay: Western-blot assay of substrate protein degradation in hPBMCs, IKZF2; assay type: cell-based; settings: 24 hours of compound treatment, compounds tested at 50 nM and 500 nM (concentration of the table not stated)
T6 construct: endogenous in cells; host or cells: hPBMCs (Milecell Biotechnologies)
T6 sequence (Q9UKS7 whole entry): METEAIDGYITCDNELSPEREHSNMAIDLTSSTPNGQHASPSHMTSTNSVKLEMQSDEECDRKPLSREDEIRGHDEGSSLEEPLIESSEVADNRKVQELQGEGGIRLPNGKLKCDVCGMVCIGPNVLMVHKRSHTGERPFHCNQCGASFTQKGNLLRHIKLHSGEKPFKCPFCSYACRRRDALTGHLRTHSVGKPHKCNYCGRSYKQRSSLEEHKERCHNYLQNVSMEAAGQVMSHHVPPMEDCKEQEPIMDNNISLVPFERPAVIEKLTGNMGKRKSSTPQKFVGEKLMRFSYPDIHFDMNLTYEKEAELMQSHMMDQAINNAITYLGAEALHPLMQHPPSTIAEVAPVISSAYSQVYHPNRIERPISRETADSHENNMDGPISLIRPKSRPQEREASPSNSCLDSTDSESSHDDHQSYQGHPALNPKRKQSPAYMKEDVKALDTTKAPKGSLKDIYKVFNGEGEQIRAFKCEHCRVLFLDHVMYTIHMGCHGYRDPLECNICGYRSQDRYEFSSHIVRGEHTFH
T6 sequence (Q96SW2 whole entry): as the sequence (Q96SW2 whole entry) above
T6 sequence (Q16531 whole entry partner): as the sequence (Q16531 whole entry partner) above

IKZF1 = molecular target: T7, IKZF1 (Homo sapiens, UniProt Q13422+Q96SW2); assay: Western-blot assay of substrate protein degradation in hPBMCs, IKZF1; assay type: cell-based; settings: 24 hours of compound treatment, compounds tested at 50 nM and 500 nM (concentration of the table not stated)
T7 construct: endogenous in cells; host or cells: hPBMCs (Milecell Biotechnologies)
T7 sequence (Q13422 whole entry): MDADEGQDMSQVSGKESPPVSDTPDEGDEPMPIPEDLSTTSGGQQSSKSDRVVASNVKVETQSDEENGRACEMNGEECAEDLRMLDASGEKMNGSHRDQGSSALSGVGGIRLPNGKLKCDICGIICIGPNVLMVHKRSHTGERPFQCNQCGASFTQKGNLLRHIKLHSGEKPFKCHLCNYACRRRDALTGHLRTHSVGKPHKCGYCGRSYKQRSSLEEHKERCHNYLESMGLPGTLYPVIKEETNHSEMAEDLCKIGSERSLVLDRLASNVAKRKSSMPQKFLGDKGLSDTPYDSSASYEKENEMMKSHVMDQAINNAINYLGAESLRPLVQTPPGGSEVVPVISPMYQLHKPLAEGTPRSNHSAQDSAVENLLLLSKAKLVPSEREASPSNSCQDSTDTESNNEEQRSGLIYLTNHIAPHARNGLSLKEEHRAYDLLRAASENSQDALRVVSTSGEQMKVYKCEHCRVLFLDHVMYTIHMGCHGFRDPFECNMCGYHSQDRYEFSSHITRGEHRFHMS
T7 sequence (Q96SW2 whole entry): as the sequence (Q96SW2 whole entry) above
T7 sequence (Q16531 whole entry partner): as the sequence (Q16531 whole entry partner) above

[2] = HTRF inhibitory activity, CEREBLON BINDING kit, read-out: HTRF IC50

Row | Compound | Weel substrate protein remaining % (WEE1) | IC50 [1, 2] [µM] | IKZF3 substrate protein remaining % (IKZF3) | CK1a substrate protein remaining % (CK1α) | GSPT1 substrate protein remaining % (GSPT1) | IKZF2 substrate protein remaining % (IKZF2) | IKZF 1 substrate protein remaining % (IKZF1) | IC50 [1] [µM]
1 | Cc1cc2c(C3CCN(Cc4ccc5c(c4)CN(C4CCC(=O)NC4=O)C5=O)CC3)ncnc2s1 (stereo not drawn) [GT-04717, 3-(5-((4-(6-methylthieno[2,3-d]pyrimidin-4-yl)piperidin-1-yl)methyl)-1-oxoisoindolin-2-yl)piperidine-2,6-dione] | B (80%< substrate protein remaining %≤ 100%) | 0.5 to 1 | A (0% ≤ substrate protein remaining % ≤ 80%) | B (80%< substrate protein remaining %≤ 100%) | A (0% ≤ substrate protein remaining % ≤ 80%) | A (0% ≤ substrate protein remaining % ≤ 80%) | B (80%< substrate protein remaining %≤ 100%) | 
2 | O=C1CCC(N2Cc3cc(CN4CCN(c5ncc6ccsc6n5)CC4)ccc3C2=O)C(=O)N1 (stereo not drawn) [GT-04725, 3-(1-oxo-5-((4-(thieno[2,3-d]pyrimidin-2-yl)piperazin-1-yl)methyl)isoindolin-2-yl)piperidine-2,6-dione] | B (80%< substrate protein remaining %≤ 100%) | < 0.5 | B (80%< substrate protein remaining %≤ 100%) | B (80%< substrate protein remaining %≤ 100%) | A (0% ≤ substrate protein remaining % ≤ 80%) | B (80%< substrate protein remaining %≤ 100%) | B (80%< substrate protein remaining %≤ 100%) | 
3 | Cc1ccsc1C1=CCN(Cc2cccc3c2CN(C2CCC(=O)NC2=O)C3=O)CC1 (stereo not drawn) [GT-04728, 3-(4-((4-(3-methylthiophen-2-yl)-3,6-dihydropyridin-1(2H)-yl)methyl)-1-oxoisoindolin-2-yl)piperidine-2,6-dione] | B (80%< substrate protein remaining %≤ 100%) | 1 to 1.5 | B (80%< substrate protein remaining %≤ 100%) | B (80%< substrate protein remaining %≤ 100%) | A (0% ≤ substrate protein remaining % ≤ 80%) | B (80%< substrate protein remaining %≤ 100%) | B (80%< substrate protein remaining %≤ 100%) | 
4 | O=C1CCC(N2Cc3cc(CN4CCC(N5C(=O)COc6cc(F)ccc65)CC4)ccc3C2=O)C(=O)N1 (stereo not drawn) [GT-04860, 3-(5-((4-(7-fluoro-3-oxo-2,3-dihydro-4H-benzo[b][1,4]oxazin-4-yl)piperidin-1-yl)methyl)-1-oxoisoindolin-2-yl)piperidine-2,6-dione] | B (80%< substrate protein remaining %≤ 100%) |  | A (0% ≤ substrate protein remaining % ≤ 80%) | B (80%< substrate protein remaining %≤ 100%) | A (0% ≤ substrate protein remaining % ≤ 80%) | A (0% ≤ substrate protein remaining % ≤ 80%) | A (0% ≤ substrate protein remaining % ≤ 80%) | < 0.5
5 | O=C1CCC(N2Cc3cc(CN4CCN(c5ncnc6sc(Br)cc56)CC4)ccc3C2=O)C(=O)N1 (stereo not drawn) [GT-04861, 3-(5-((4-(6-bromothieno[2,3-d]pyrimidin-4-yl)piperazin-1-yl)methyl)-1-oxoisoindolin-2-yl)piperidine-2,6-dione] | A (0% ≤ substrate protein remaining % ≤ 80%) | < 0.5 | A (0% ≤ substrate protein remaining % ≤ 80%) | A (0% ≤ substrate protein remaining % ≤ 80%) | A (0% ≤ substrate protein remaining % ≤ 80%) | A (0% ≤ substrate protein remaining % ≤ 80%) | A (0% ≤ substrate protein remaining % ≤ 80%) | 
6 | O=C1CCC(N2Cc3cc(CN4CCN(c5ncnc6sc(-c7ccccc7)cc56)CC4)ccc3C2=O)C(=O)N1 (stereo not drawn) [GT-04862, 3-(1-oxo-5-((4-(6-phenylthieno[2,3-d]pyrimidin-4-yl)piperazin-1-yl)methyl)isoindolin-2-yl)piperidine-2,6-dione] | A (0% ≤ substrate protein remaining % ≤ 80%) | < 0.5 | A (0% ≤ substrate protein remaining % ≤ 80%) | A (0% ≤ substrate protein remaining % ≤ 80%) | A (0% ≤ substrate protein remaining % ≤ 80%) | A (0% ≤ substrate protein remaining % ≤ 80%) | A (0% ≤ substrate protein remaining % ≤ 80%) | 
7 | O=C1CCC(N2Cc3cc(CN4CC5CC(C4)N5c4cccc(Cl)c4Cl)ccc3C2=O)C(=O)N1 (stereo not drawn) [GT-04897, 3-(5-((6-(2,3-dichlorophenyl)-3,6-diazabicyclo[3.1.1]heptan-3-yl)methyl)-1-oxoisoindolin-2-yl)piperidine-2,6-dione] | B (80%< substrate protein remaining %≤ 100%) | 1.5 to 1.9 | B (80%< substrate protein remaining %≤ 100%) | B (80%< substrate protein remaining %≤ 100%) | A (0% ≤ substrate protein remaining % ≤ 80%) | B (80%< substrate protein remaining %≤ 100%) | B (80%< substrate protein remaining %≤ 100%) | 
8 | O=C1CCC(N2Cc3cc(CN4CC5CCC(C4)N5c4cccc(Cl)c4Cl)ccc3C2=O)C(=O)N1 (stereo not drawn) [GT-04899, 3-(5-((8-(2,3-dichlorophenyl)-3,8-diazabicyclo[3.2.1]octan-3-yl)methyl)-1-oxoisoindolin-2-yl)piperidine-2,6-dione] | B (80%< substrate protein remaining %≤ 100%) | 0.5 to 1 | B (80%< substrate protein remaining %≤ 100%) | B (80%< substrate protein remaining %≤ 100%) | B (80%< substrate protein remaining %≤ 100%) | B (80%< substrate protein remaining %≤ 100%) | A (0% ≤ substrate protein remaining % ≤ 80%) | 
9 | O=C1CCC(N2Cc3cc(CN4CCN(c5noc6ccncc56)CC4)ccc3C2=O)C(=O)N1 (stereo not drawn) [GT-04904, 3-(5-((4-(isoxazolo[4,5-c]pyridin-3-yl)piperazin-1-yl)methyl)-1-oxoisoindolin-2-yl)piperidine-2,6-dione] | B (80%< substrate protein remaining %≤ 100%) | < 0.5 | B (80%< substrate protein remaining %≤ 100%) | B (80%< substrate protein remaining %≤ 100%) | B (80%< substrate protein remaining %≤ 100%) | B (80%< substrate protein remaining %≤ 100%) | A (0% ≤ substrate protein remaining % ≤ 80%) | 
